# Assay results taken from paper PMC6149971, “In Vivo and In Vitro Activities and ADME-Tox Profile of a Quinolizidine-Modified 4-Aminoquinoline: A Potent Anti-P. falciparum and Anti-P. vivax Blood-Stage Antimalarial” (Molecules : A Journal of Synthetic Chemistry and Natural …, 2017).
# Several values for one entry are separate records, joined by “and”; a condition that tells them apart may be missing. Identical values can stand only once.
# Experiments:
# [1] = Microsome stability and metabolism studies, mouse; type: in vitro ADME; design: key: +: Metabolic Products Detected In Vitro and In Vivo; ND: Not detectable; conditions: (−)-AM1 1 μM, at 30 min
# Description: Samples from the metabolic stability and metabolism studies were analyzed under the following conditions: UPLC interfaced with a Premiere XE triple Quadrupole Waters for stability studies, and Bruker Daltonics Ion Trap HCT Ultra for metabolic studies. A gradient from 2% to 100% (Water, MeOH, 5 mM Ammonium Acetate) over 2 min (stability) or 12 min (metabolism) in a C18 BEH (dimensions 1 by 50 mm for stability and 2.1 by 100 mm for metabolism, 1.7 µm column, 45 °C temperature, flow rate 0.5 mL/min) was used. For stability studies, the detection was performed in MRM (ESI positive, Q1/Q3 330.16/152.00, Cone Voltage 45 V; Extractor 5 V; Capillary 3.4 kV), while for metabolism studies, analysis was performed in Auto MS/MS mode (ESI positive; Capillary 109 V; Dry Temp 350 °C; Nebulizer 30 psi; Dry gas 10 L/min; HV capillary 500 V; Mass Accu time 500 µs; Mass range MS scan 100–600 amu, MS/MS 50–450 amu).
# For stability and metabolism studies, test compounds were dissolved in DMSO, diluted at the final concentration of 1 µM, and pre-incubated in duplicate for 10 min at 37 °C in potassium phosphate buffer, pH 7.4, 3 mM MgCl2, with rat, mouse, and human hepatic microsomes (Xenotech Europe, Pfungstadt, Germany) at the final concentration of 0.5 mg/mL. The reaction was then started by adding the cofactor mixture of NADP, Glc6P, and G6P-DH, in the presence of UDPGA 1 mM in human microsomes to promote glucuronide formation. Acetonitrile (with verapamil as internal standard) was added to the samples at the times time 0 and 30 min to stop the reaction. Samples were then centrifuged and the supernatants analysed and quantified by LC-MS/MS. Reference compounds of known metabolic stability, 7-ethoxycoumarin (7-EC) and propranolol, were used as controls.
# The percentage of the area of test compounds remaining after 30 min incubation was calculated in respect to the area of compounds at time = 0 min. […] Samples were re-analyzed by acquiring the daughter scan of the potential metabolites found during the full scan acquisition.
# [2] = Pharmacokinetics in CD-1 mice after oral administration; type: in vivo, mouse; conditions: male, CD-1, mouse, in vivo, po, 10 mg/kg
# Description: Samples from the pharmacokinetic studies were analyzed under the following conditions: UPLC interfaced with a Premiere XE triple Quadrupole, Waters. A gradient from 2 to 100% (Water, MeOH, 5 mM Ammonium Acetate) over 1.3 min was used in Acquity HSS T3 (dimensions 2.1 by 50 mm, 1.8 µm column, 40 °C temperature, flow rate 0.5 mL/min). Detection was performed in MRM (ESI positive, Q1/Q3 330.16/152.00, Cone Voltage 45 V; Extractor 5 V; Capillary 3.4 kV). The limit of detection was 1 ng/mL. Pharmacokinetic parameters were determined by Non-Compartmental Analysis, using the linear trapezoidal rule and uniform weight.
# Pharmacokinetic data were collected in mice by testing the racemate and the enantiomers at the same single dose, and vehicle-utilized for in vivo studies (see composition in paragraph 4.4). Briefly, male CD-1 mice (Charles River Laboratories) weighing 18–22 g received single dose (10 mg/kg) oral administrations of the AM1 racemate and single enantiomers, each dissolved in SSV. For each experiment, twenty-four mice/dose and three mice/time-point were used. Blood samples were collected at eight selected time-points (15, 30 and 60 min; 2, 4, 6, 8 and 24 h) under ethyl ether anaesthesia. The heparinized tubes containing blood samples were immediately placed on ice and centrifuged, and the supernatant collected and frozen at −80 °C prior to analysis. Pharmacokinetic plasma samples (spiked with internal standard) were filtered (Sirocco filter plate, Waters) under vacuum, and 5 µL analysed by LC-MS/MS.
# P. berghei = test: Prophylactic test, P. berghei/A. stephensi model; type: in vivo; conditions: 50 mg/kg per os for 4 days, infection by mosquito bites, days 5–9 post-infection
# Description: (−)-AM1 was also tested in transmission-blocking and prophylactic studies using the P. berghei/A. stephensi model as described, with a few modifications.
# For the prophylactic test, the experimental drugs were administered at 50 mg/kg per os for 4 consecutive days; 90 min after the last administration, mice were infected by 6–10 infective mosquito bites. Thick and thin Giemsa-stained smears were prepared and examined on days 5–10 post-infection to assess parasite density per μL of blood.
# P. falciparum D10 (CQ-S) = test: Combination with dihydroartemisinin (isobologram), D10; type: cell-based; conditions: additive activity
# Description: Figure 2 Isobologram analysis of the antimalarial activity of (−)-AM1 in combination with dihydroartemisinin (DHA) against D10 chloroquine-sensitive (CQ-S) (A) or W2 chloroquine-resistant (CQ-R) (B) P. falciparum strains. […]. DHA fractional IC50 values were calculated by dividing the IC50 of DHA combined with (−)-AM1 or CQ, respectively, by the IC50 of DHA alone, and plotted on the horizontal axis. The corresponding fractional (−)-AM1 or CQ IC50 values were calculated by dividing each fixed concentration by the IC50 of the (−)-AM1 or CQ alone, and plotted on the vertical axis. An isobologram close to the diagonal indicates an additive effect.
# The antimalarial activity of (−)-AM1 was assayed in combination with dihydroartemisinin (DHA) against W-2 (CQ-R) or D10 (CQ-S) strains of P. falciparum by potentiation tests as previously described. CQ was used as a control. Isobolograms were constructed by plotting a pair of fractional IC50 values for each combination of (−)-AM1 or CQ with DHA [40].
# An isobologram close to the diagonal indicates an additive effect.
compound,measurement,setting,value
"Clc1ccc2c(NC[C@@H]3CCCN4CCCC[C@H]34)ccnc2c1 [(−)-AM1, 7-chloro-N-(((1S,9aR)-octahydro-1H-quinolizin-1-yl)methyl)quinolin-4-amine]","Metabolic products detected, in vitro microsomes, mouse",[1],+
same,AUC(0-t),[2],0.313 µM·h and 103 ng·h/mL
same,Cmax,[2],84 nM and 27.6 ng/mL
same,MRT last,[2],3.33 h
same,Tmax,[2],0.25 h
same,"parasitaemia versus control mice, prophylactic activity",P. berghei,no significant differences in parasitaemia
same,FIC in combination with DHA,P. falciparum D10 (CQ-S),< 2
